The text below walks through data of US11638716B2, “Compounds, compositions, and methods for the treatment of disease” (F-star Therapeutics, Inc., priority 2017, dated 2023).

The structures appear in SMILES notation.

For test [1], the system named is CT26 murine colon carcinoma. As to the kind of experiment: CT26 murine colon carcinoma model in female BALB/c mice. The test is classed as in vivo, mouse. As to the method: Example 4: Study to Determine the Efficacy of Compound 4 in a CT26 Murine Colon Carcinoma Model Using Female BALB/c Mice
The animals were fed ad libitum water (reverse osmosis, 1 ppm Cl) and a NIH 31 Modified and Irradiated Lab Diet consisting of 18.0% crude protein, 5.0% crude fat, and 5.0% crude fiber.
CT26 murine colon carcinoma cells were grown in RPMI-1640 medium containing 10% fetal bovine serum, 2 mM glutamine, 100 units/mL penicillin G sodium, 100 μg/mL streptomycin sulfate, and 25 μg/mL gentamicin. The cells were cultured in tissue culture flasks in a humidified incubator at 37° C., in an atmosphere of 5% CO2 and 95% air.
On the day of implantation, cultured CT26 cells were harvested during log phase growth and resuspended in phosphate buffered saline, pH 7.4 (PBS) at a concentration of 3×10^6 cells/mL. Each mouse was injected subcutaneously in the right flank with 3×10^5 tumor cells (0.1 mL cell suspension) and tumors were monitored as their volumes approached the target range of 80 to 120 mm^3. Eleven days after tumor cell implantation, on Day 1 of the study, animals were sorted into three groups (n=8/group) with individual tumor volumes of 63 to 126 mm^3, and a group mean tumor volume of 105 mm^3. Tumors were measured with a caliper twice weekly for the duration of the study. Tumor size was calculated using the formula:
[formula] wherein w is width and 1 is length, in mm, of a tumor. Tumor weight may be estimated with the assumption that 1 mg is equivalent to 1 mm^3 of tumor volume. Test Articles
Compound 4 was dissolved by adding the appropriate volume of sterile saline (vehicle) into each tube, vortexing, incubating at 37° C. for 2-5 minutes, followed by sonication, if needed. […] A fresh vial was prepared on each day of dosing.
On Day 1 of the study, three groups of BALB/c mice (n=8) began dosing according to the protocol in FIG. 20. Compound 4 and vehicle were administered intravenously (i.v.). Group 1 received vehicle on Days 1, 5, 9, and 14. Groups 2 and 3 received CMD 4 at 1 and 3 mg/kg, respectively, on Days 1, 5, 9, and 14.
The study endpoint was a tumor volume of 2000 mm^3 or Day 30, whichever came first. The study ended on Day 29. The study protocol specified a tumor growth delay assay based on the median time-to-endpoint (TTE) in a treated group versus the control group. Tumors were measured using calipers twice per week, and each animal was euthanized for tumor progression (TP) when its tumor reached the 2000 mm^3 volume endpoint. The TTE for each mouse was calculated with the following equation:
[formula] where b is the intercept and m is the slope of the line obtained by linear regression of a log-transformed tumor growth data set. The data set is comprised of the first observation that exceeded the study endpoint volume and the three consecutive observations that immediately preceded the attainment of the endpoint volume. […] In instances in which the log-transformed calculated TTE preceded the day prior to reaching endpoint or exceeded the day of reaching tumor volume endpoint, a linear interpolation was performed to approximate TTE.
On Day 29, MTV (n) was defined as the median tumor volume of the number of animals, n, that survived to the last day and whose tumors had not reached the volume endpoint. Any animal determined to have died from treatment-related (TR) causes was to be assigned a TTE value equal to the day of death. Any animal that died from non-treatment-related (NTR) causes was to be excluded from the analysis. Treatment outcome was evaluated from tumor growth delay (TGD), which was defined as the increase in the median TTE for a treatment group compared to the control group: TGD=T−C expressed in days, or as a percentage of the median TTE of the control group:
[formula] wherein T is the median TTE for a treatment group and C is the median TTE for the control group. Tumor Growth Inhibition (TGI) Analysis […]

Test [2] concerns peripheral blood mononuclear cells (PBMCs). As to the kind of experiment: IFNb and TNFa secretion by freshly isolated PBMCs (ELISA). It counts as cell-based, human. The settings on record: 20 hours. As to the method:
FIG. 25 depicts freshly isolated peripheral blood mononuclear cells (PBMCs) treated with a range of concentrations of compound 3 or DMSO control for 20 hours. Supernatants were collected to measure IFNb and TNFa secretion by Verikine-Human IFN beta Serum ELISA kit and Human TNF Alpha ELISA kit respectively. The amount of cytokine releases into supernatant was calculated by a standard curve. Compound 3 induces IFNβ and TNFα secretion in PBMCs after treatment.
FIG. 29 depicts freshly isolated PBMCs that were treated with a range of concentrations of compound 4 or DMSO control for 20 hours. Supernatants were collected to measure IFNb and TNFa secretion by Verikine-Human IFN beta Serum ELISA kit and Human TNF Alpha ELISA kit respectively. The amount of cytokine releases into supernatant was calculated by a standard curve. Compound 4 induces IFNβ and TNFα secretion in PBMCs after treatment.
(An ELISA detects its analyte on a solid surface through an enzyme-linked reagent.)

As to `N.N.Nc1ncnc2c1ncn2[C@@H]1O[C@@H]2COP(=O)(S)O[C@@H]3[C@H](F)[C@@H](COP(=O)(O)O[C@H]2[C@H]1F)O[C@H]3n1ccc(=O)[nH]c1=O` (some centres unmarked) [Compound 3], in test [1] (intravenously at 3 mg/kg), the “tumor growth compared to the vehicle” value is listed as “Tumor growth was slowed”. For the same compound, in test [2], the IFNβ secretion result is “induces” and the TNFα secretion entry was “induces”.

In the case of `CCCCCCCCCCOc1ccc(C(=O)Oc2ccc(CSP3(=O)OC[C@H]4O[C@@H](n5cnc6c(N)ncnc65)[C@H](F)[C@@H]4OP(=O)(O)OC[C@H]4O[C@@H](n5ccc(=O)[nH]c5=O)[C@H](O3)[C@@H]4F)cc2)cc1` (some centres unmarked) [Compound 4], in test [1] (intravenously at 1 mg/kg and 3 mg/kg), the “tumor growth compared to the vehicle” value is recorded as “Tumor growth was slowed”. In test [1] (treatment groups 1 and 3 mg/kg i.v.), the “individual times to endpoint vs vehicle group” value is given as “took longer to reach the endpoint”. Besides, in test [1] (treatment groups 1 and 3 mg/kg i.v., Days 1, 5, 9, 14, TGI on Day 18), the “tumor growth inhibition compared to the vehicle group” value is listed as “at least 89%”. Also, in test [1] (treatment groups 1 and 3 mg/kg i.v., Days 1, 5, 9, 14, endpoint tumor volume 2000 mm^3), the “time to reach the endpoint, longer than vehicle group” value is on record as “at least 10 days”. Also, the “tumor volume distribution on day 18 vs vehicle group” value in test [1] (treatment groups 1 and 3 mg/kg i.v., day 18) is “significantly smaller tumor volumes”. The “percent of mice remaining (Kaplan-Meier) vs vehicle group” value in test [1] (treatment groups 1 and 3 mg/kg i.v., day 21) was “greater percent of mice remaining”. In test [2], the IFNβ secretion result was “induces” and the TNFα secretion entry is “induces”.
